# Experimental data reported in patent publication US20070092474A1, “Carnitine salt, preliposome which contains it and dermocosmetic formula for topical use based upon said carnitine salt” (priority 2003, published 2007).
# Where “and” joins values, the source holds several entries; their conditions need not be identical. Identical values can stand only once.
# Tested on: skin blemishes caused by cellulite and localised adiposity
# Test: Liquid crystal contact thermography of the thighs, clinical score of cellulite stage
# Format: in vivo, female volunteers
# Design: key: 9: IV SERIOUS; 8: IV AVERAGE; 7: IV INITIAL; 6: III SERIOUS; 5: III AVERAGE; 4: III INITIAL; 3: II SERIOUS; 2: II AVERAGE; 1: II INITIAL
# Conditions: clinical score per volunteer, MEDIA = mean
# Description: A dermatological test was carried out on 25 female volunteers between 18 and 65 years of age, with the backing of the Department of Physiological and Pharmacological Sciences of the university of Pavia. The investigation aimed to check the modification of three anatomical-physiological parameters, qualifying the unaesthetic-functional aspect connected to the manifestation of so-called cellulite and subcutaneous hypertriglyceridaemia: measurement of the skin folds, measurement of the circumference of the thighs, thermographic skin measurement.
# The test stretched out over 60 days with the continual daily application of the aforementioned preparation of cosmetic gel. The measurements were carried out after 15, 30 and 60 days. The detail of the test protocol and of the results obtained is shown hereafter.
# 25 female volunteers aged between 18 and 65, with the presence of skin blemishes caused by cellulite and localised adiposity, were selected according to the following criteria: good general state of health, absence of skin pathologies, not being under medication, commitment not to vary the normal daily routine, no medical history of atopy.
# The samples were tested by uniformly applying them on “Glute SX Glute DJ (Femoris Posto SX Femoris Posto DX Femoris Ant. SX Femoris Ant. DX” every day at least once per day for the entire duration of the test.
# At the time of inclusion in the study and during the subsequent checks after 15 days (T15), after 30 days (T30) and after 60 days (T60) of treatment the following instrumental measurements were taken: • plicometry (through a plicometer) • thigh circumference (through a measuring tape broken into millimetres) • contact thermography (through liquid crystal thermographic plates).
# For its part, thermography allows the extension and the gravity of the microcirculatory skin damage and, consequently, the subcutaneous damage, to be evaluated based upon the regional skin temperature variations. Such temperature variations reveal the presence of subschemic areas (cold areas, due to regional hypothermia) or of phenomena of capillary-venous stasis (hot areas). The diagnostic properties of thermography are relative to the recognition of maldistribution of microcirculation. In particular, “liquid crystal contact thermography” was used, in which the property of cholesteric liquid crystals (of which the plates are made up) of modifying their spatial arrangement according to the temperature is exploited; each spatial modification corresponds to a different refraction of the light rays which thus assume different colours according to the incidence of the light on the faces of the cholesteric microcrystals: in practice, when the thermographic plates are placed upon the skin of the zone to be investigated, these assume different colourations according to the skin temperature. Conventionally, the thermographic images observed during the course of the different stages of evolution of the Edematous fibrosclerotic panniculopathy from stasis of the lower limbs can be classified in four, or more, thermographic stages; the latter approximately correspond to the gravity of the four istologic stages in which the moments of evolution of the panniculosis are divided.
substance,measurement,setting,value
carnitine hydroxycitrate [carnitine hydroxy citrate],LEFT THIGH THERMOGRAPHY 1/3 T0,,5 (9×) and 4 (3×) and 7 (4×) and 2 and 6 (7×) and 3
same,LEFT THIGH THERMOGRAPHY 1/3 T0,mean,5.3
same,LEFT THIGH THERMOGRAPHY 1/3 T15,,5 (9×) and 4 (5×) and 3 (3×) and 7 (2×) and 2 and 6 (5×)
same,LEFT THIGH THERMOGRAPHY 1/3 T15,mean,4.8
same,LEFT THIGH THERMOGRAPHY 1/3 T30,,2 (7×) and 4 (10×) and 3 (2×) and 6 (3×) and 5 (3×)
same,LEFT THIGH THERMOGRAPHY 1/3 T30,mean,3.7
same,LEFT THIGH THERMOGRAPHY 1/3 T60,,2 (11×) and 3 (7×) and 4 (4×) and 5 (2×) and 6
same,LEFT THIGH THERMOGRAPHY 1/3 T60,mean,3.0
same,LEFT THIGH THERMOGRAPHY 2/3 T0,,4 (5×) and 5 (10×) and 3 (3×) and 7 and 2 and 6 (5×)
same,LEFT THIGH THERMOGRAPHY 2/3 T0,mean,4.7
same,LEFT THIGH THERMOGRAPHY 2/3 T15,,3 (7×) and 4 (11×) and 5 (3×) and 6 (3×) and 2
same,LEFT THIGH THERMOGRAPHY 2/3 T15,mean,4.0
same,LEFT THIGH THERMOGRAPHY 2/3 T30,,2 (6×) and 3 (12×) and 4 (6×) and 5
same,LEFT THIGH THERMOGRAPHY 2/3 T30,mean,3.1
same,LEFT THIGH THERMOGRAPHY 2/3 T60,,2 (9×) and 3 (11×) and 4 (4×) and 1
same,LEFT THIGH THERMOGRAPHY 2/3 T60,mean,2.7
same,LEFT THIGH THERMOGRAPHY 3/3 T0,,3 (3×) and 5 (3×) and 4 (16×) and 2 (2×) and 7
same,LEFT THIGH THERMOGRAPHY 3/3 T0,mean,4.0
same,LEFT THIGH THERMOGRAPHY 3/3 T15,,3 (7×) and 4 (11×) and 5 (3×) and 2 (4×)
same,LEFT THIGH THERMOGRAPHY 3/3 T15,mean,3.5
same,LEFT THIGH THERMOGRAPHY 3/3 T30,,2 (7×) and 3 (11×) and 4 (5×) and 1 (2×)
same,LEFT THIGH THERMOGRAPHY 3/3 T30,mean,2.8
same,LEFT THIGH THERMOGRAPHY 3/3 T60,,1 (3×) and 3 (11×) and 2 (10×) and 4
same,LEFT THIGH THERMOGRAPHY 3/3 T60,mean,2.4
same,RIGHT THIGH THERMOGRAPHY 1/3 T0,,5 (10×) and 4 (3×) and 7 (3×) and 3 (2×) and 6 (6×) and 8
same,RIGHT THIGH THERMOGRAPHY 1/3 T0,mean,5.3
same,RIGHT THIGH THERMOGRAPHY 1/3 T15,,5 (9×) and 4 (6×) and 7 (3×) and 3 (2×) and 6 (5×)
same,RIGHT THIGH THERMOGRAPHY 1/3 T15,mean,5.0
same,RIGHT THIGH THERMOGRAPHY 1/3 T30,,2 (7×) and 4 (9×) and 3 (2×) and 5 (4×) and 6 (2×) and 7
same,RIGHT THIGH THERMOGRAPHY 1/3 T30,mean,3.8
same,RIGHT THIGH THERMOGRAPHY 1/3 T60,,2 (11×) and 3 (6×) and 4 (5×) and 5 (2×) and 6
same,RIGHT THIGH THERMOGRAPHY 1/3 T60,mean,3.0
same,RIGHT THIGH THERMOGRAPHY 2/3 T0,,4 (6×) and 5 (11×) and 7 and 3 (3×) and 6 (4×)
same,RIGHT THIGH THERMOGRAPHY 2/3 T0,mean,4.8
same,RIGHT THIGH THERMOGRAPHY 2/3 T15,,3 (5×) and 4 (12×) and 5 (4×) and 6 (3×) and 2
same,RIGHT THIGH THERMOGRAPHY 2/3 T15,mean,4.1
same,RIGHT THIGH THERMOGRAPHY 2/3 T30,,2 (4×) and 3 (13×) and 4 (7×) and 5
same,RIGHT THIGH THERMOGRAPHY 2/3 T30,mean,3.2
same,RIGHT THIGH THERMOGRAPHY 2/3 T60,,2 (8×) and 3 (12×) and 4 (4×) and 1
same,RIGHT THIGH THERMOGRAPHY 2/3 T60,mean,2.8
same,RIGHT THIGH THERMOGRAPHY 3/3 T0,,3 (4×) and 5 (4×) and 4 (15×) and 2 and 7
same,RIGHT THIGH THERMOGRAPHY 3/3 T0,mean,4.0
same,RIGHT THIGH THERMOGRAPHY 3/3 T15,,3 (7×) and 4 (11×) and 5 (3×) and 2 (4×)
same,RIGHT THIGH THERMOGRAPHY 3/3 T15,mean,3.5
same,RIGHT THIGH THERMOGRAPHY 3/3 T30,,2 (7×) and 3 (10×) and 4 (7×) and 1
same,RIGHT THIGH THERMOGRAPHY 3/3 T30,mean,2.9
same,RIGHT THIGH THERMOGRAPHY 3/3 T60,,1 (3×) and 3 (12×) and 2 (9×) and 4
same,RIGHT THIGH THERMOGRAPHY 3/3 T60,mean,2.4
